Data from US10226466B2, “Methods of treating fibrosis” (Pharmacyclics LLC, priority 2014, dated 2019).
Where “and” joins values, the source holds several entries; their conditions need not be identical. Identical values can stand only once. Entries after “also recorded” stand apart in the source; their conditions may differ.

Columns and labels:
[1] = test system: p53^ER/ER;LSLKRas^G12D;pdx1-Cre mice; assay: Histology, immunohistochemistry and Picrosirius Red collagen staining of pancreata from PDAC model mice treated for 4 weeks; format: in vivo, mouse; conditions: for Collagen deposition (Picrosirius Red Staining): intraperitoneal daily injection of 10 mg per kg for 4 weeks from 8 weeks of age, compared to vehicle-treated control
Experimental: (§1) For immunohistochemical analyses, tissue samples were fixed overnight in neutral pH-buffered formalin, embedded in paraffin and sectioned (5 μm). Sections were then deparaffinized, rehydrated and microwaved for 1 min in 0.01 M citrate buffer (pH 6.0) for antigen retrieval. Primary antibodies (rat monoclonal anti-CD11b (clone M1/70), eBioscience; rabbit monoclonal anti-Ki67 (clone SP6), Neomarkers) were applied for 2 h in blocking buffer (2.5% BSA, 5% goat serum and 0.3% Triton X-100 in PBS), followed by Vectastain ABC kit and DAB reagents (Vector Laboratories). Images were obtained with an Axiovert S100 TV inverted fluorescence microscope (Zeiss) and Open Lab 3.5.1 software, or with an Axiovert 100 inverted microscope (Zeiss) equipped with a Hamamatsu Orca digital camera. The mast cells were identified using 1% toluidine blue dissolved in ethanol. Picrosirius Red stain kit (Polysciences, Inc.) was used to stain for collagen Types I and III according to manufacturer instructions.
For all experiments, 8 week old male and female p53^ER/ER;LSLKRas^G12D;pdx1-Cre mice of mixed C57BL/6-FVB/N background were randomized into two groups: treated and control. Ibrutinib (0.16 mg/mL with 1% 2-Hydroxypropyl-beta-cyclodextrin (HP-β-CD)) was added to the drinking water of treated animals, and control animals received water containing vehicle only (1% HP-β-CD). Gemcitabine (75 mg/kg) was injected intraperitoneally twice a week for 3 weeks followed by a 1-week rest period. Sodium cromoglycate ([…]) was dissolved in saline solution and injected intraperitoneally, and control mice were treated with vehicle only. Endpoint criteria were defined as 20% body weight loss in addition to general morbidity and lethargy caused by tumor burden. Mice euthanized due to intestinal metaplasia or mucocutaneous papillomas caused by extrapancreatic KRAS^G12D expression were excluded from the survival study.
A p53^ER/ER;LSLKRas^G12D;pdx1-Cre mouse model that harbors a Cre-activated KRasG12D allele inserted into the endogenous KRas locus combined with pancreas-specific PDX-1-driven Cre recombinase activity was used. The disruption of Trp53 signaling in combination with KRas mutation leads to rapid tumorigenesis and histopathological features typical of human pancreatic adenocarcinoma within only 8 weeks. At this stage the animals were treated with ibrutinib, at a dose of 25 mg/Kg/day added to their drinking water, or with vehicle control. The animals were euthanized 4 weeks later and their pancreata harvested for analysis. […] In stained, vehicle-treated mast cells, the cell borders were broken and the content of their granules were released. […] Reasons for this phenomenon can include the fact that several chemokines produced by mast cells, such as IL6, are known to be potent stimulants for monocytic cell migration and macrophage activation, so that inhibiting mast cells could prevent their recruitment.
In order to verify that this effect on fibrosis was specifically due to mast cell interference, two independent control experiments were performed. In the first experiment, sodium cromoglycate (cromolyn), a well-characterized blocker of mast cell degranulation and inflammogen release was used. The p53^ER/ER;LSLKRas^G12D ,pdx1-Cre mice were treated intraperitoneally (i.p.) with a daily injection of 10 mg per kg (bodyweight) of cromolyn, starting at 8 weeks of age. The animals were euthanized 4 weeks later and their pancreata analysed.

mast cell = conditions: mouse model of insulinoma; background statement; cited from earlier work
[2] = test system: subcutaneous xenografts of a patient derived tumor in NOD/SCID mice; assay: Collagen deposition in subcutaneous xenografts of a patient-derived tumor (PDX) in NOD/SCID mice; format: in vivo, mouse; conditions: NOD/SCID mice with patient-derived xenograft, ibrutinib-treated vs untreated
Experimental: as §1
NOD/SCID mice were purchased from Charles River Laboratory. The anonymized human sample employed was part of the tissue biological material of the University Hospital Vall d'Hebron. […] Tumor size was evaluated weekly by caliper measurements and tumor volume calculated using the following formula: […]

[3] = test system: p53^ER/ER;LSLKRas^G12D;pdx1-Cre mice; assay: Flow cytometry of single cell suspensions of PDAC tumors from treated mice; format: in vivo, mouse; conditions: ibrutinib 25 mg/Kg/day in drinking water, 4 weeks
Experimental: Following resection, PDAC tumors isolated from PBS-perfused mice were immediately placed in ice-cold PBS, followed by manual mincing using scissors and a 20 min enzymatic digestion with 1.25 mg/mL collagenase type IV (Roche), 0.1% trypsin inhibitor, and 50 U/ml DNase I (Roche) in serum-free Dulbecco's Modified Eagle's Medium (DMEM) (Invitrogen) at 37° C. with continuous stirring. Single cell suspensions were then prepared by passing tissue through 70 μm nylon strainers (BD Biosciences). Cells were incubated for 30 min at 4° C. with rat anti-mouse CD16/CD32 mAb (1:250, clone 2.4G2, BD Bioscience) in PBS, which also contained Live/Dead Aqua stain (1:250, Invitrogen) to differentiate between viable and dead cells. Cells were then incubated for 30 min in PBS containing 1.0% BSA (Sigma) and 2 mM EDTA with 100 μl of fluorophore-conjugated anti-mouse antibodies (dilution; clone): PE-Cy7-CD45 (1:800; 30-F11), PerCp-Cy5.5-CD3e (1:400; 145-2C11), PerCp-Cy5.5-CD19 (1:200; 6D5), PerCp-Cy5.5-CD49b (1:400; DX5), Alexa 700-CD11b (1:400; M1/70), APC780-CD11c (1:200; N418), eFluor450-MHCII (1:800; M5/114.15.2), APC-Ly6C (1:800; HK1.4), PE-Ly6G (1:400; 1A8), and PE-Cy5-F4/80 (1:400; BM8) (eBioscience or Biolegend). Cells were then washed once in PBS containing 1.0% BSA (Sigma) and 2 mM EDTA, followed by fixation with BD Cytofix for 30 min on ice. […]

[4] = test system: p53^ER/ER;LSLKRas^G12D;pdx1-Cre mice; assay: Survival study in PDAC model mice (Kaplan-Meier, Log-rank test); format: in vivo, mouse; conditions: treatment starting from 8 weeks of age; Log-rank p value=0.015
Experimental: For all experiments, 8 week old male and female p53^ER/ER;LSLKRas^G12D;pdx1-Cre mice of mixed C57BL/6-FVB/N background were randomized into two groups: treated and control. Ibrutinib (0.16 mg/mL with 1% 2-Hydroxypropyl-beta-cyclodextrin (HP-β-CD)) was added to the drinking water of treated animals, and control animals received water containing vehicle only (1% HP-β-CD). Gemcitabine (75 mg/kg) was injected intraperitoneally twice a week for 3 weeks followed by a 1-week rest period. Sodium cromoglycate (10/kg) was dissolved in saline solution and injected intraperitoneally, and control mice were treated with vehicle only. Endpoint criteria were defined as 20% body weight loss in addition to general morbidity and lethargy caused by tumor burden. Mice euthanized due to intestinal metaplasia or mucocutaneous papillomas caused by extrapancreatic KRAS^G12D expression were excluded from the survival study.
Statistical analysis was carried out by two-tailed Mann-Whitney test (for IHC counts), two tailed unpaired t-test (for flow cytometry data) and Log-Rank test (for Kaplan-Meier survival curves). […] Statistical analysis was performed using GraphPad Prism 4.
Two independent survival experiments were undertaken to test the therapeutic impact of ibrutinib alone and to assess ibrutinib in combination with gemcitabine.

| Structure (SMILES) | Collagen deposition (Picrosirius Red Staining) [1] | Collagen deposition (Picrosirius Red Staining) ([1]; listed as sodium cromoglicate) | Ki67 positive (proliferating) cells in pancreata / proliferation rate ([1]; ibrutinib 25 mg/Kg/day in drinking water for 4 weeks from 8 weeks of age, IHC, vehicle control 67.8%, p value=0.0016) | Mast cell degranulation in tumor stroma (toluidine blue staining) ([1]; ibrutinib 25 mg/Kg/day in drinking water, 4 weeks) | Amount of collagen in tumors (Picrosirius Red Staining) ([1]; ibrutinib 25 mg/Kg/day in drinking water, 4 weeks, compared to vehicle-treated animals) | CD11b positivity by immunohistochemistry ([1]; ibrutinib 25 mg/Kg/day in drinking water, 4 weeks, compared to vehicle-treated mice) | Systemic mast cell blocking (mast cell) | Collagen deposition / tissue fibrosis in tumor stroma (Picrosirius Red Staining) [2] | F4/80 positive macrophages (tumor-associated macrophages) by FACS analysis ([3]; FIG. 1C right panel) | CD11b+ cells by FACS analysis ([3]; percent of total cells, FIG. 1C left panel) | Survival, monotherapy vs vehicle control [4] |
| --- | --- | --- | --- | --- | --- | --- | --- | --- | --- | --- | --- |
| O=C(O)c1cc(=O)c2c(OCC(O)COc3cccc4oc(C(=O)O)cc(=O)c34)cccc2o1 [cromolyn, sodium cromoglycate, reference compound] | reduced collagen deposition | recapitulated the antifibrotic effect |  |  |  |  |  |  |  |  |  |
| C=CC(=O)N1CCC[C@@H](n2nc(-c3ccc(Oc4ccccc4)cc3)c3c(N)ncnc32)C1 [ibrutinib, (R)-1-(3-(4-amino-3-(4-phenoxyphenyl)-1H-pyrazolo[3,4-d]pyrimidin-1-yl)piperidin-1-yl)prop-2-en-1-one] |  |  | 14.9±7.0% and 14.9% | efficiently inhibited | reduced the amount of collagen | affected; also recorded: clear reduction of CD11b positivity | potent systemic mast cell blocker | reduction in tissue fibrosis; also recorded: reduction of collagen deposition | significant reduction | confirmed by FACS analysis | significant survival advantage; also recorded: confers survival advantage |
